US9539315B2, “Methods, agents and peptides for inhibiting matrix metalloproteinase-2 signaling” (New York University, priority 2011, dated 2017)

Tests used:
Type in all cases: cell-based, human
[1] = tested on: MMP-2-specific CD4^+ T cells; experiment: Screen of overlapping MMP-2 peptides for recognition by CD4+ T cell clones; settings: 20-mer peptides of MMP-2
Source text: By way of background, the present inventors used a pool of sixty-six 20-amino acid long, partially overlapping peptides spanning the entire sequence of MMP-2 (SEQ ID NO: 1) to screen for the presence of MMP-2-specific CD4^+ T cells and identify the specific MMP-2 epitopes for which these clones were specific. See, for example, FIG. 6. Using this method, CD4^+ T cell clones specific for eleven distinct and novel MMP-2-derived peptides/epitopes were generated. An empirical approach to determining which, if any, of the potential MMP-2 peptides could induce MMP-2-specific CD4^+ T cells was necessitated because of the nature and complexity of antigen processing and presentation by antigen presenting cells [APCs; e.g., monocyte-derived dendritic cells (DCs)] and the additional complexities involved in T cell recognition of presented antigen, which are influenced by, for example, the presence and/or concentration of particular cytokines that are instructive for divergent T cell differentiation pathways.
Peripheral blood mononuclear cells (PBMCs) can be purified from healthy donor- (HD) or cord blood donor- (CB) derived buffy coats (New York Blood Center) by Ficoll-Paque Plus (GE Healthcare) centrifugation. CD4^+/CD25^− cells were enriched (>90%) by magnetic cell sorting (Miltenyi Biotec) and primed/stimulated for 12-15 days either with irradiated (35Gy) autologous CD4^− cells or with autologous mature DCs in IMDM (GIBCO) supplemented with 1 mM HEPES (Life Technologies), 2 mM L-glutamine (Sigma), […] (Sigma) and 5% heat inactivated pooled human serum (PHS; Valley Biomedical) in the presence of rhIL-2 (10 UI/mL) and IL7 (5 ng/mL) (R&D Systems). Antigen presenting cells (CD4^− cells or DCs) were loaded either with peptides […] or with the MMP-2 protein (10 μg/mL) for 2 and 5 h, respectively. To generate T cell clones, we originally relied on our published methodology (Godefroy et al., 2006; Godefroy et al., 2007; the entire content of each of which is incorporated herein by reference), involving enrichment of IFNγ-secreting cells upon short-term culture and peptide stimulation to generate MMP-2 responsive clones. Briefly, CD4^+ T cells were stimulated by CD4^− cells irradiated and pulsed with peptides for 12 days in the presence of rhIL-2 and rhIL-7. CD4^+ T cells were then restimulated with peptides for 3 hours before capturing IFNγ-secreting specific cells using a bispecific antibody coating T cells and capturing produced IFNγ. Positive cells were purified magnetically before being cloned. Although MMP-2-specific cells could be isolated, it was realized that IFNγ secretion was marginal compared to their secretion of IL-4 and TNFα. IFNγ-secreting cells in response to MMP-2 peptide pool were enriched by cytokine-guided magnetic cell sorting (Miltenyi Biotec) as described above and cloned the following day by limiting dilution in the presence of irradiated allogeneic PBMCs, 1 μg/mL phytohemagglutinin-L (Sigma) and 150 UI/mL rhIL-2. Tumor infiltrating lymphocytes (TILs) were provided by Pr. F. Jotereau and B. Dréno. They were obtained from tumor-invaded lymph nodes of melanoma patients (stage IIIb) and expanded ex vivo. These patients received autologous TILs and IL-2 infusions in a clinical trial (Labarriere et al., 2002). This protocol was approved by the Institutional Ethics Committee and registered with regulatory state authority in France (Nantes).
T-bet and GATA-3 expression was measured on resting T cells. Cells were fixed (4% paraformaldehyde for 10 min at RT), permeabilized with 0.1% saponin, and stained for intracellular transcription factors. Cytokine production by T cells was also assessed by intracellular staining. T cells were stimulated with 2 μM overlapping peptides. After 1 h, 10 μg/mL brefeldin A was added to the cells. […]

OX40L = OX40L expression on DCs (staining); settings: for OX40L expression on DCs: DCs exposed for 2 days, stained for OX40L
Procedure: (§1) A) DCs were exposed to MMP-2 […] or zymosan […], a known activator of NF-κB that acts via TLR2, for the indicated time. Cytosolic and nuclear fractions were isolated and p50 contents were measured by ELISA. […] C) OX40L over-expression on DCs induced by MMP-2 is inhibited by an inhibitor of NEMO, the NEMO binding domain (NBD) peptide, but not by the corresponding negative control, a NBD mutant.
A) DCs were exposed to various TLR agonists for 2 days before cells were stained for OX40L. […] B) TLR2-transfected and engineered HEK cells were incubated with MMP-2 (5 mg/ml) or various controls. All conditions were also tested in the presence of a blocking antibody for TLR2. TNFα was used to activate NF-κB in a TLR-independent manner. Twenty hours later, NF-κB activation was measured.
Antibody to OX40L (11C3.1) was from Biolegend. Blocking antibodies to TLR-2 and TLR-6 were from Invivogen. Antibodies to GATA-3, IL-4 (8D4-8), IL-5 (JES1-39D10), IL-13 (JES10-5A2), TNFα (MAb11), IFNγ (25723.11), perforin (δG9), GranzymeB (GB11), CD40 (5C3), CD80 (L307.4), CD83 (HB15e), CD86 (IT2.2), HLA-DR (TU36), fluorescein isothiocyanate-conjugated antibodies to CD45RA (HI100) and CD45RO (UCHL1), and antibody to CD4 (RPA-T4) were purchased from BD Biosciences Pharmingen. Alexa fluor 488-conjugated antibody to IL-17 (eBio64DEC17), phycoerythrine-conjugated antibody to T-bet (4B10).
(§2) PBMCs were purified from healthy-(HD) or cord blood- (CB) donors and plated at 40×10^6 cells/10 mL/dish in complete IMDM with 5% PHS. Cells were allowed to adhere for 2 h at 37° C. Non-adherent cells were removed. The monocyte-enriched fraction was supplemented with 100 UI/mL rhGMCSF and 300 UI/mL rhIL-4 (R&D Systems) on days 0, 2 and 4. Immature DCs were harvested on day 5 and matured using poly(I:C) at 5 μg/mL/10^6 DCs (Amersham). Secretion of IL-12p70, TNFα, IL-1β, IL-6, IL-8 and IL-10 was assessed on both immature and mature DCs using the Human Inflammatory Cytokine Cytometric Bead Array (BD Pharmingen).

NF-κB pathway = experiment: p50 nuclear translocation / NF-κB activation in DCs (ELISA of cytosolic and nuclear fractions)
Procedure: as §1, §2
Activation of T cell clones (10,000 cells/100 μL/well), polyclonal T cell populations (100,000 cells/100 μL/well), and DCs (50,000 cells/100 μL/well) can be determined by ELISA. IFNγ (BioSource), TNFα (BioSource), IL-4 (BioSource), IFNβ (VeriKine; PBL interferon source) and MCP-3 (DuoSet; R&D Systems) contents in supernatants were measured according to the manufacturer's instructions. p50 was measured in cytosolic and nuclear fractions (fractions separated using the nuclear separation kit from Active motif) by ELISA (Active motif).

Row | Molecule | recognition as epitope by CD4+ T cell clones [1] | also measured
1 | VDLQGGGHSYFFKGAYYLKL (listed as Homo sapiens) [P621-640] | recognized by CD4^+ T cell clones | 
2 | GYPKPLTSLGLPPDVQRVDA (listed as Homo sapiens) [P551-570] | recognized by CD4^+ T cell clones | 
3 | ESCTSAGRSDGKMWCATTAN (listed as Homo sapiens) [P361-380] | recognized by CD4^+ T cell clones | 
4 | AFNWSKNKKTYIFAGDKFWR (listed as Homo sapiens) [P571-590] | recognized by CD4^+ T cell clones | 
5 | Pam3CSK4 |  | OX40L over-expression on TLR-2-transfected HEK cells or DCs (OX40L; TLR-2/TLR-1 agonist): did not induce OX40L over-expression
6 | TGPLRALCLLGCLLSHAAAA (listed as Homo sapiens) [P11-30] | recognized by CD4^+ T cell clones | 
7 | VAPKTDKELAVQYLNTFYGC (listed as Homo sapiens) [P41-60] | recognized by CD4^+ T cell clones | 
8 | FFKGAYYLKLENQSLKSVKF (listed as Homo sapiens) [P631-650] | recognized by CD4^+ T cell clones | 
9 | GCLLSHAAAAPSPIIKFPGD (listed as Homo sapiens) [P21-40] | recognized by CD4^+ T cell clones | 
10 | RIHDGEADIMINFGRWEHGD (listed as Homo sapiens) [P161-180] | recognized by CD4^+ T cell clones | 
11 | MEALMARGALTGPLRALCLL (listed as Homo sapiens) [P1-20] | recognized by CD4^+ T cell clones | 
12 | NEMO binding domain (NBD) peptide |  | inhibition of OX40L over-expression on DCs induced by MMP-2 (OX40L; DCs, MMP-2-induced): inhibited
13 | MALP-2 |  | OX40L expression on DCs (OX40L): induce OX40L on DCs
14 | GFPKLIADAWNAIPDNLDAV (listed as Homo sapiens) [P601-620] | recognized by CD4^+ T cell clones | 
15 | heat-inactivated (HI) MMP-2: MMP-2 enzyme inactivated by heating to 56° C. for 45 min (protein) YNFFPRKPKWDKNQITYRIIGYTPDLDPETVDDAFARAFQVWSDVTPLRFSRIHDGEADIMINFGRWEHGDGYPFDGKDGLLAHAFAPGTGVGGDSHFDDDELWTLGEGQVVRVKYGNADGEYCKFPFLFNGKEYNSCTDTGRSDGFLWCSTTYNFEKDGKYGFCPHEALFTMGGNAEGQPCKFPFRFQGTSYDSCTTEGRTDGYRWCGTTEDYDRDKKYGFCPETAMSTVGGNSEGAPCVFPFTFLGNKYESCTSAGRSDGKMWCATTANYDDDRKWGFCPDQGYSLFLVAAHEFGHAMGLEHSQDPGALMAPIYTYTKNFRLSQDDIKGIQELYGASPDIDLGTGPTPTLGPVTPEICKQDIVFDGIAQIRGEIFFFKDRFIWRTVTPRDKPMGPLLVATFWPELPEKIDAVYEAPQEEKAVFFAGNEYWIYSASTLERGYPKPLTSLGLPPDVQRVDAAFNWSKNKKTYIFAGDKFWRYNEVKKKMDPGFPKLIADAWNAIPDNLDAVVDLQGGGHSYFFKGAYYLKLENQSLKSVKFGSIKSDWLGC |  | p50 translocation in the nucleus (NF-κB pathway; DCs exposed to MMP-2 (5 μm/ml) or zymosan (10 μm/ml), p50 by ELISA): trigger p50 translocation in the nucleus; NF-κB activation in DCs (NF-κB pathway; active vs heat-inactivated MMP-2): NF-κB activation (FIGS. 2A, 2B and 3) at similar levels; OX40L expression on DCs (OX40L): induce OX40L expression
